Assay results from US20200093103A1, “BREEDING WATER FOR ANGUILLIFORMES AND METHOD FOR REARING ANGUILLIFORMES” (SHIN NIPPON BIOMEDICAL LABORATORIES, LTD., priority 2016, published 2020).

Tested on: Anguilla japonica leptocephali
Test: Induction of Anguilla japonica metamorphosis by T4 treatment in 23° C. breeding water
Format: in vivo
Design: key: L: During life, no characteristics of metamorphosis seen.; Stage 1: Starting phase of metamorphosis. The rostral end is rounded, and intestinal degeneration starts.; Stage 2: Peak phase of metamorphosis. Intestinal degeneration becomes pronounced.; Stage 3: Late phase of metamorphosis.; Stage 4: Pre-glass eel stage. Almost the eel form, but the body height still remains
From the text: Stage 1: Starting phase of metamorphosis. The rostral end is rounded, and intestinal degeneration starts.
Stage 2: Peak phase of metamorphosis. Intestinal degeneration becomes pronounced. In the second half, the anus reaches to near the last vertical blood vessel (VBV last).
Stage 3: Late phase of metamorphosis. The preanal length (PAL) becomes equal to or shorter than the last vertical blood vessel length (VBV last Length) (PAL VBV last Length). The body height is apparently low.
Stage 4: Pre-glass eel stage. Almost the eel form, but the body height still remains. Melanophores on the body surface or endogenous melanophores are not yet seen.
Elver stage: Juvenile stage. Food intake can be identified.
A thyroid hormone (e.g., thyroxine (T4)) is adjusted to 50 to 100 mM in a 1- to 2-mL volume messflask. As a solvent, known solvents (water, alcohol) can be used. Ethanol is preferably used as the solvent.
For example, using ethanol as a solvent, T4 adjusted to 50 mM is diluted 500-fold, 5,000-fold, and 50,000-fold, respectively, and adjusted to […], 1 μM, and 100 nM. A feed can be prepared in this manner.
Artificial seawater is added to a breeding vessel, and 1/1000 of the […] T4 is added to prepare […] T4 breeding water.
Half of the breeding water is replaced every two days with breeding water of the same concentration. In the case where the concentration is changed, for example, in the case of changing from 10 nM to 2 nM, 80% to the breeding water is removed, and unadjusted artificial seawater is newly added to make 1 L.
Leptocephali visually considered to have reached a total length of 40 mm (or may be 30 mm to 50 mm, may be 35 mm to 45 mm, or may also be 35 mm or more, 40 mm or more, or 45 mm or more) are selected, anesthetized with 2-phenoxyethanol, and then photographed, and the total length of each larva is measured using an image analyzing device.
The larvae are placed in 10 nM T4 breeding water and then placed in an incubator set at 23° C., and breeding is started. In first one week, observation is performed every two days, and half of the 10 nM T4 breeding water is replaced each time. The average amount of thyroid hormone in the breeding water in stage 1 is 1 nM to 100 nM, for example, and may also be 3 nM to 30 nM, or 5 nM to 20 nM.
For larvae visually judged to have reached the second half of stage 2, the concentration of the breeding water is changed. The breeding water is diluted 5-fold or 10-fold and adjusted to 2 nM or 1 nM T4, and breeding is continued. The average amount of thyroid hormone in the breeding water in stage 2 may be, as compared with the breeding water of stage 1, diluted 2-fold to 20-fold, diluted 3 to 15-fold, or diluted 5 to 10-fold as described above. The average amount of thyroid hormone in the breeding water in stage 2 is 0.1 nM to 20 nM, for example, and may also be 0.5 nM to 10 nM, 1 nM to 5 nM, or 1 nM to 2 nM.
For larvae visually judged to have reached stage 3, the breeding water is quickly changed 0.2 nM T4 breeding water, which is a 5-fold dilution of 1 nM T4 breeding water, and further changed to 0.1 nM T4 breeding water on the following day. […] Also, in larvae whose anus position has not reached the last vertical hemal spine, when they are judged to be on the brink of stage 3, the concentration is changed as above. The average amount of thyroid hormone in the breeding water in stage 3 may be, as compared with the breeding water of stage 2, diluted 2-fold to 50-fold, diluted 3 to 15-fold, diluted 4 to 6-fold, or diluted 5-fold as described above. The average amount of thyroid hormone in the breeding water in stage 3 is 0.01 nM to 2 nM, for example, and may also be 0.05 nM to 1 nM, 0.1 nM to 0.5 nM, or 0.1 nM to 0.2 nM. […] That is, the concentration may be changed such that the thyroid hormone becomes undetectable in the breeding water in the course of stage 3.
In stage 3, breeding is continuously performed in the 0.1 nM T4 breeding water. […]

N[C@@H](Cc1cc(I)c(Oc2cc(I)c(O)c(I)c2)c(I)c1)C(=O)O [T4, thyroxine]
metamorphosis stage (individual Exp 5-4, 175 days old, total length 43.5 mm at start, c3 onward = treatment days 1,3,5,7,8,9,10,11,12,13,14,15,16,17,18, T4 (nM) 10,10,10,10,2,1,0.2,0.1,0.1,0.1,0.1,0.1, treatment day 1, T4 10 nM): L
metamorphosis stage (individual Exp 5-4, 175 days old, total length 43.5 mm at start, c3 onward = treatment days 1,3,5,7,8,9,10,11,12,13,14,15,16,17,18, T4 (nM) 10,10,10,10,2,1,0.2,0.1,0.1,0.1,0.1,0.1, treatment day 3, T4 10 nM): L
metamorphosis stage (individual Exp 5-4, 175 days old, total length 43.5 mm at start, c3 onward = treatment days 1,3,5,7,8,9,10,11,12,13,14,15,16,17,18, T4 (nM) 10,10,10,10,2,1,0.2,0.1,0.1,0.1,0.1,0.1, treatment day 5, T4 10 nM): 2
metamorphosis stage (individual Exp 5-4, 175 days old, total length 43.5 mm at start, c3 onward = treatment days 1,3,5,7,8,9,10,11,12,13,14,15,16,17,18, T4 (nM) 10,10,10,10,2,1,0.2,0.1,0.1,0.1,0.1,0.1, treatment day 7, T4 10 nM): 2
metamorphosis stage (individual Exp 5-4, 175 days old, total length 43.5 mm at start, c3 onward = treatment days 1,3,5,7,8,9,10,11,12,13,14,15,16,17,18, T4 (nM) 10,10,10,10,2,1,0.2,0.1,0.1,0.1,0.1,0.1, treatment day 8, T4 2 nM): 2
metamorphosis stage (individual Exp 5-4, 175 days old, total length 43.5 mm at start, c3 onward = treatment days 1,3,5,7,8,9,10,11,12,13,14,15,16,17,18, T4 (nM) 10,10,10,10,2,1,0.2,0.1,0.1,0.1,0.1,0.1, treatment day 9, T4 1 nM): 2
metamorphosis stage (individual Exp 5-4, 175 days old, total length 43.5 mm at start, c3 onward = treatment days 1,3,5,7,8,9,10,11,12,13,14,15,16,17,18, T4 (nM) 10,10,10,10,2,1,0.2,0.1,0.1,0.1,0.1,0.1, treatment day 10, T4 0.2 nM): 2
metamorphosis stage (individual Exp 5-4, 175 days old, total length 43.5 mm at start, c3 onward = treatment days 1,3,5,7,8,9,10,11,12,13,14,15,16,17,18, T4 (nM) 10,10,10,10,2,1,0.2,0.1,0.1,0.1,0.1,0.1, treatment day 11, T4 0.1 nM): 2
metamorphosis stage (individual Exp 5-4, 175 days old, total length 43.5 mm at start, c3 onward = treatment days 1,3,5,7,8,9,10,11,12,13,14,15,16,17,18, T4 (nM) 10,10,10,10,2,1,0.2,0.1,0.1,0.1,0.1,0.1, treatment day 12, T4 0.1 nM): 3
metamorphosis stage (individual Exp 5-4, 175 days old, total length 43.5 mm at start, c3 onward = treatment days 1,3,5,7,8,9,10,11,12,13,14,15,16,17,18, T4 (nM) 10,10,10,10,2,1,0.2,0.1,0.1,0.1,0.1,0.1, treatment day 13, T4 0.1 nM): 3
metamorphosis stage (individual Exp 5-4, 175 days old, total length 43.5 mm at start, c3 onward = treatment days 1,3,5,7,8,9,10,11,12,13,14,15,16,17,18, T4 (nM) 10,10,10,10,2,1,0.2,0.1,0.1,0.1,0.1,0.1, treatment day 14, T4 0.1 nM): 3
metamorphosis stage (individual Exp 5-4, 175 days old, total length 43.5 mm at start, c3 onward = treatment days 1,3,5,7,8,9,10,11,12,13,14,15,16,17,18, T4 (nM) 10,10,10,10,2,1,0.2,0.1,0.1,0.1,0.1,0.1, treatment day 15, T4 0.1 nM): 4
metamorphosis stage (individual Exp 5-5, 174 days old, total length 36.1 mm at start, c3 onward = treatment days 1,3,5,7,8,9,10,11,12,13,14,15,16,17, T4 (nM) 10,10,10,10,10,10,10,2,0.2,0.1,0.1,0.1,0.1,0.1, treatment day 1, T4 10 nM): L
metamorphosis stage (individual Exp 5-5, 174 days old, total length 36.1 mm at start, c3 onward = treatment days 1,3,5,7,8,9,10,11,12,13,14,15,16,17, T4 (nM) 10,10,10,10,10,10,10,2,0.2,0.1,0.1,0.1,0.1,0.1, treatment day 3, T4 10 nM): L
metamorphosis stage (individual Exp 5-5, 174 days old, total length 36.1 mm at start, c3 onward = treatment days 1,3,5,7,8,9,10,11,12,13,14,15,16,17, T4 (nM) 10,10,10,10,10,10,10,2,0.2,0.1,0.1,0.1,0.1,0.1, treatment day 5, T4 10 nM): L
metamorphosis stage (individual Exp 5-5, 174 days old, total length 36.1 mm at start, c3 onward = treatment days 1,3,5,7,8,9,10,11,12,13,14,15,16,17, T4 (nM) 10,10,10,10,10,10,10,2,0.2,0.1,0.1,0.1,0.1,0.1, treatment day 7, T4 10 nM): L
metamorphosis stage (individual Exp 5-5, 174 days old, total length 36.1 mm at start, c3 onward = treatment days 1,3,5,7,8,9,10,11,12,13,14,15,16,17, T4 (nM) 10,10,10,10,10,10,10,2,0.2,0.1,0.1,0.1,0.1,0.1, treatment day 8, T4 10 nM): 2
metamorphosis stage (individual Exp 5-5, 174 days old, total length 36.1 mm at start, c3 onward = treatment days 1,3,5,7,8,9,10,11,12,13,14,15,16,17, T4 (nM) 10,10,10,10,10,10,10,2,0.2,0.1,0.1,0.1,0.1,0.1, treatment day 9, T4 10 nM): 2
metamorphosis stage (individual Exp 5-5, 174 days old, total length 36.1 mm at start, c3 onward = treatment days 1,3,5,7,8,9,10,11,12,13,14,15,16,17, T4 (nM) 10,10,10,10,10,10,10,2,0.2,0.1,0.1,0.1,0.1,0.1, treatment day 10, T4 10 nM): 2
metamorphosis stage (individual Exp 5-5, 174 days old, total length 36.1 mm at start, c3 onward = treatment days 1,3,5,7,8,9,10,11,12,13,14,15,16,17, T4 (nM) 10,10,10,10,10,10,10,2,0.2,0.1,0.1,0.1,0.1,0.1, treatment day 11, T4 2 nM): 3
metamorphosis stage (individual Exp 5-5, 174 days old, total length 36.1 mm at start, c3 onward = treatment days 1,3,5,7,8,9,10,11,12,13,14,15,16,17, T4 (nM) 10,10,10,10,10,10,10,2,0.2,0.1,0.1,0.1,0.1,0.1, treatment day 12, T4 0.2 nM): 3
metamorphosis stage (individual Exp 5-5, 174 days old, total length 36.1 mm at start, c3 onward = treatment days 1,3,5,7,8,9,10,11,12,13,14,15,16,17, T4 (nM) 10,10,10,10,10,10,10,2,0.2,0.1,0.1,0.1,0.1,0.1, treatment day 13, T4 0.1 nM): 3
metamorphosis stage (individual Exp 5-5, 174 days old, total length 36.1 mm at start, c3 onward = treatment days 1,3,5,7,8,9,10,11,12,13,14,15,16,17, T4 (nM) 10,10,10,10,10,10,10,2,0.2,0.1,0.1,0.1,0.1,0.1, treatment day 14, T4 0.1 nM): 3
metamorphosis stage (individual Exp 5-5, 174 days old, total length 36.1 mm at start, c3 onward = treatment days 1,3,5,7,8,9,10,11,12,13,14,15,16,17, T4 (nM) 10,10,10,10,10,10,10,2,0.2,0.1,0.1,0.1,0.1,0.1, treatment day 15, T4 0.1 nM): 3
